Experiments:
[1] = NO releasing ability of the measured through the formation of nitrite (NO2) in solution, following incubation in the presence of beta-lactamase
[2] = NO releasing ability of the measured through the formation of nitrite (NO2) in solution, following incubation in the absence of beta-lactamase (Compound+penicillinase)
[3] = The NO releasing ability measured through the formation of nitrite (NO2) in solution, following incubation of the compound

SMILES	Concentration [1] [µM]	Concentration [2] [µM]	Concentration [3] [µM]
O=C(Cc1cccs1)N[C@@H]1C(=O)N2C(C(=O)O)=C(COC(=O)/N=c3/c[n+](N4CCOCC4)[n-]o3)CS[C@H]12	2.2	10.2	–
[NH-]c1c[n+](N2CCOCC2)no1	–	–	15.5

Reference: ChEMBL document CHEMBL1136380, “Synthesis of beta-lactamase activated nitric oxide donors” (Bioorg Med Chem Lett, 2003)
